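The compound was tested at five concentrations on cells cultured in 96-well plates, with a 48-hour exposure period. The concentration for 50% growth inhibition is given as GI50.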 The source made the active and inactive calls. No stated cut-off is given here; in the data, active = GI50 up to about 1.1 µM and inactive = higher.
Assays:
Test in all cases: NCI-60 cell line screen, 48 h
HOP-62 = test system: HOP-62
KM12 = test system: KM12
UACC-257 = test system: UACC-257
SK-MEL-28 = test system: SK-MEL-28
LOX IMVI = test system: LOX IMVI
ACHN = test system: ACHN
UO-31 = test system: UO-31
SF-539 = test system: SF-539
786-0 = test system: 786-0
CAKI-1 = test system: CAKI-1
NCI-H23 = test system: NCI-H23
TK-10 = test system: TK-10
PC-3 = test system: PC-3
SK-MEL-2 = test system: SK-MEL-2
MOLT-4 = test system: MOLT-4
SK-MEL-5 = test system: SK-MEL-5
K562 = test system: K562
HCT-15 = test system: HCT-15
OVCAR-5 = test system: OVCAR-5
HOP-92 = test system: HOP-92

O=c1c2ccccc2sc2cccc(NCCCN3CCN(CCCNc4cccc5sc6ccccc6c(=O)c45)CC3)c12
GI50 (HOP-62): > 100 µM (inactive)
GI50 (KM12): > 100 µM (inactive)
GI50 (UACC-257): > 100 µM (inactive)
GI50 (SK-MEL-28): > 100 µM (inactive)
GI50 (LOX IMVI): > 100 µM (inactive)
GI50 (ACHN): > 100 µM (inactive)
GI50 (UO-31): > 100 µM (inactive)
GI50 (SF-539): > 100 µM (inactive)
GI50 (786-0): > 100 µM (inactive)
GI50 (CAKI-1): > 100 µM (inactive)
GI50 (NCI-H23): > 100 µM (inactive)
GI50 (TK-10): > 100 µM (inactive)
GI50 (PC-3): 85.1 µM (inactive)
GI50 (SK-MEL-2): > 100 µM (inactive)
GI50 (MOLT-4): > 100 µM (inactive)
GI50 (SK-MEL-5): > 100 µM (inactive)
GI50 (K562): > 100 µM (inactive)
GI50 (HCT-15): > 100 µM
GI50 (OVCAR-5): > 100 µM (inactive)

Cc1cc(C)nc(NC(P(=O)(O)O)P(=O)(O)O)n1
GI50 (HOP-62): > 100 µM (inactive)
GI50 (KM12): > 100 µM (inactive)
GI50 (UACC-257): > 100 µM (inactive)
GI50 (LOX IMVI): > 100 µM (inactive)
GI50 (ACHN): > 100 µM (inactive)
GI50 (UO-31): > 100 µM (inactive)
GI50 (SF-539): > 100 µM (inactive)
GI50 (786-0): > 100 µM (inactive)
GI50 (CAKI-1): > 100 µM (inactive)
GI50 (NCI-H23): > 100 µM (inactive)
GI50 (TK-10): > 100 µM (inactive)
GI50 (PC-3): > 100 µM (inactive)
GI50 (SK-MEL-5): > 100 µM (inactive)
GI50 (HCT-15): > 100 µM
GI50 (OVCAR-5): > 100 µM (inactive)

Nc1cc(F)ccc1CC(=O)O
GI50 (HOP-62): > 100 µM (inactive)
GI50 (KM12): > 100 µM (inactive)
GI50 (UACC-257): > 100 µM (inactive)
GI50 (SK-MEL-28): > 100 µM (inactive)
GI50 (LOX IMVI): > 100 µM (inactive)
GI50 (ACHN): > 100 µM (inactive)
GI50 (UO-31): > 100 µM (inactive)
GI50 (SF-539): > 100 µM (inactive)
GI50 (786-0): > 100 µM (inactive)
GI50 (CAKI-1): > 100 µM (inactive)
GI50 (NCI-H23): > 100 µM (inactive)
GI50 (TK-10): > 100 µM (inactive)
GI50 (PC-3): > 100 µM (inactive)
GI50 (SK-MEL-2): > 100 µM (inactive)
GI50 (MOLT-4): > 100 µM (inactive)
GI50 (SK-MEL-5): > 100 µM (inactive)
GI50 (K562): > 100 µM (inactive)
GI50 (HCT-15): > 100 µM
GI50 (OVCAR-5): > 100 µM (inactive)

CC(C)c1cc(CN(C)C)c(O)c(C(C)(C)C)c1
GI50 (HOP-62): 22.8 µM (inactive)
GI50 (KM12): 21.4 µM (inactive)
GI50 (UACC-257): 15.3 µM (inactive)
GI50 (SK-MEL-28): 28.1 µM (inactive)
GI50 (LOX IMVI): 17.4 µM (inactive)
GI50 (ACHN): 16.8 µM (inactive)
GI50 (UO-31): 23.1 µM (inactive)
GI50 (786-0): 18.5 µM (inactive)
GI50 (CAKI-1): 23.1 µM (inactive)
GI50 (NCI-H23): 34.7 µM (inactive)
GI50 (TK-10): 35.1 µM (inactive)
GI50 (PC-3): 21.6 µM (inactive)
GI50 (SK-MEL-2): 18.1 µM (inactive)
GI50 (MOLT-4): 26.2 µM (inactive)
GI50 (SK-MEL-5): 14.9 µM (inactive)
GI50 (HCT-15): 23.7 µM
GI50 (OVCAR-5): > 100 µM (inactive)

CN(C)/C=N/NC(=O)/C(C#N)=C/N(C)C
GI50 (HOP-62): > 100 µM (inactive)
GI50 (KM12): > 100 µM (inactive)
GI50 (UACC-257): > 100 µM (inactive)
GI50 (SK-MEL-28): > 100 µM (inactive)
GI50 (LOX IMVI): > 100 µM (inactive)
GI50 (ACHN): > 100 µM (inactive)
GI50 (UO-31): > 100 µM (inactive)
GI50 (SF-539): 64.7 µM (inactive)
GI50 (786-0): > 100 µM (inactive)
GI50 (CAKI-1): > 100 µM (inactive)
GI50 (NCI-H23): > 100 µM (inactive)
GI50 (TK-10): > 100 µM (inactive)
GI50 (PC-3): > 100 µM (inactive)
GI50 (SK-MEL-2): > 100 µM (inactive)
GI50 (MOLT-4): > 100 µM (inactive)
GI50 (SK-MEL-5): > 100 µM (inactive)
GI50 (K562): > 100 µM (inactive)
GI50 (HCT-15): > 100 µM
GI50 (OVCAR-5): > 100 µM (inactive)

CCOC(=O)c1sc2nc(SC)nc3c2c1N=CN3c1ccccc1Cl
GI50 (HOP-62): 6.98 µM (inactive)
GI50 (KM12): > 100 µM (inactive)
GI50 (UACC-257): > 100 µM (inactive)
GI50 (SK-MEL-28): > 100 µM (inactive)
GI50 (LOX IMVI): > 100 µM (inactive)
GI50 (ACHN): 19.4 µM (inactive)
GI50 (UO-31): > 100 µM (inactive)
GI50 (786-0): 14.1 µM (inactive)
GI50 (CAKI-1): 26.2 µM (inactive)
GI50 (NCI-H23): 92.3 µM (inactive)
GI50 (HOP-92): 22.6 µM (inactive)
GI50 (TK-10): > 100 µM (inactive)
GI50 (PC-3): > 100 µM (inactive)
GI50 (SK-MEL-2): 49.2 µM (inactive)
GI50 (MOLT-4): 61.7 µM (inactive)
GI50 (SK-MEL-5): 52 µM (inactive)
GI50 (K562): 72.3 µM (inactive)
GI50 (HCT-15): > 100 µM
GI50 (OVCAR-5): > 100 µM (inactive)

C[C@@H](NC(=O)[C@@H]1C[C@]1(C)COC(=O)c1cc([N+](=O)[O-])cc([N+](=O)[O-])c1)c1cccc2ccccc12
GI50 (HOP-62): 53 µM (inactive)
GI50 (KM12): > 100 µM (inactive)
GI50 (UACC-257): > 100 µM (inactive)
GI50 (SK-MEL-28): > 100 µM (inactive)
GI50 (LOX IMVI): 60.1 µM (inactive)
GI50 (ACHN): 33.7 µM (inactive)
GI50 (UO-31): > 100 µM (inactive)
GI50 (786-0): > 100 µM (inactive)
GI50 (CAKI-1): > 100 µM (inactive)
GI50 (NCI-H23): > 100 µM (inactive)
GI50 (HOP-92): 80.2 µM (inactive)
GI50 (TK-10): > 100 µM (inactive)
GI50 (PC-3): > 100 µM (inactive)
GI50 (SK-MEL-2): > 100 µM (inactive)
GI50 (MOLT-4): > 100 µM (inactive)
GI50 (SK-MEL-5): > 100 µM (inactive)
GI50 (K562): > 100 µM (inactive)
GI50 (HCT-15): > 100 µM
GI50 (OVCAR-5): > 100 µM (inactive)
